Values quoted from earlier work as cited in US20170027865A1, “Dry Pharmaceutical Compositions for Topical Delivery of Oral Medications, Nasal Delivery and to Treat Ear Disorders” (CMPD LICENSING LLC, priority 2013, published 2017).
Where two headings read alike, the source gives them in different places.

Key:
[1] = tested on: Clostridium perfringens
[2] = tested on: Streptococcus pyogenes; details: Gram: pos
[3] = tested on: Shigella dysenteriae; details: Gram: neg
[4] = tested on: Pseudomonas aeruginosa; details: Gram: neg
[5] = tested on: Shigella sonnei; details: Gram: neg
[6] = tested on: Moraxella catarrhalis; details: Gram: neg
[7] = tested on: Bacteroides fragilis; details: Gram: anaer
[8] = tested on: Salmonella typhi; details: Gram: neg
[9] = tested on: Shigella boydii; details: Gram: neg
[10] = tested on: Rickettsiae
[11] = tested on: Francisella tularensis
[12] = tested on: Staphylococcus epidermidis; details: Gram: pos
[13] = tested on: Campylobacter jejuni; details: Gram: neg
[14] = tested on: Enterobacter cloacae; details: Gram: neg
[15] = tested on: Haemophilus parainfluenzae; details: Gram: neg
[16] = tested on: Morganella morganii; details: Gram: neg
[17] = tested on: Mycoplasma pneumoniae; details: Gram: n/a
[18] = tested on: Klebsiella pneumoniae; details: Gram: neg
[19] = tested on: Legionella pneumophila
[20] = tested on: Acinetobacter lwoffii; details: Gram: neg
[21] = tested on: Methicillin Resistant Staph aureus (MRSA); details: Gram: pos
[22] = tested on: Chlamydia pneumoniae; details: Gram: n/a
[23] = tested on: Viridans group streptococci; details: Gram: pos
[24] = tested on: Diphtheroids; details: Gram: pos
[25] = tested on: Vibrio cholerae; details: Gram: neg
[26] = tested on: Acinetobacter baumannii; details: Gram: neg
[27] = tested on: Citrobacter diversus; details: Gram: neg
[28] = tested on: Corynebacterium urealyticum; details: Gram: pos
[29] = tested on: Proteus mirabilis; details: Gram: neg
[30] = tested on: Proteus vulgaris; details: Gram: neg
[31] = tested on: Serratia marcescens; details: Gram: neg
[32] = tested on: Enterobacter sakazakii; details: Gram: neg
[33] = tested on: Providencia stuartii; details: Gram: neg
[34] = tested on: Peptostreptococcus; details: Gram: pos
[35] = tested on: Escherichia coli; details: Gram: neg
[36] = tested on: Haemophilus ducreyi; details: Gram: neg
[37] = tested on: Corynebacterium jeikeium; details: Gram: pos
[38] = tested on: Yersinia pestis
[39] = tested on: Staphylococcus aureus (MSSA); details: Gram: pos
[40] = tested on: Shigella flexneri; details: Gram: neg
[41] = tested on: Enterococcus faecium; details: Gram: pos
[42] = tested on: Klebsiella (Calymmatobacterium) granulomatis; details: Gram: neg
[43] = tested on: Neisseria gonorrhoeae; details: Gram: neg
[44] = tested on: Chlamydia psittaci
[45] = tested on: Clostridium difficile; details: Gram: anaer
[46] = tested on: Haemophilus influenzae; details: Gram: neg
[47] = tested on: Enterococcus faecalis; details: Gram: pos
[48] = tested on: Klebsiella oxytoca; details: Gram: neg
[49] = tested on: Streptococcus agalactiae; details: Gram: pos
[50] = tested on: Streptococcus pneumoniae; details: Gram: pos
[51] = tested on: Neisseria meningitidis; details: Gram: neg
[52] = tested on: Acinetobacter calcoaceticus; details: Gram: neg
[53] = tested on: Bordetella pertussis; details: Gram: neg
[54] = tested on: Providencia rettgeri; details: Gram: neg
[55] = tested on: Chlamydia trachomatis; details: Gram: n/a
[56] = tested on: Citrobacter freundii; details: Gram: neg
[57] = tested on: Enterobacter aerogenes; details: Gram: neg
[58] = tested on: Bartonella bacilliformis; details: Gram: neg
[59] = tested on: Brucella species
[60] = tested on: Pseudomonas fluorescens; details: Gram: neg

## CO/N=C(\C(=O)N[C@@H]1C(=O)N2C(C(=O)O)=C(CSc3nc(=O)c(=O)[nH]n3C)CS[C@H]12)c1csc(N)n1 [Ceftriaxone, ceftriaxone]
[1]; Clostridium perfringens, Gram: anaer
  Expected coverage: yes
[2]
  Expected coverage: yes
[3]
  Expected coverage: yes
[4]
  Expected coverage: no
[5]
  Expected coverage: yes
[6]
  Expected coverage: yes
[7]
  Expected coverage: yes
[8]
  Expected coverage: yes
[9]
  Expected coverage: yes
[10]; Rickettsiae, Gram: neg
  Expected coverage: no
[11]; Francisella tularensis, Gram: neg
  Expected coverage: no
[12]
  Expected coverage: yes
[13]
  Expected coverage: no
[14]
  Expected coverage: yes
[15]
  Expected coverage: yes
[16]
  Expected coverage: yes
[17]
  Expected coverage: no
[18]
  Expected coverage: yes
[19]; Legionella pneumophila, Gram: neg
  Expected coverage: no
[20]
  Expected coverage: no
[21]
  Expected coverage: no
[22]
  Expected coverage: no
[23]
  Expected coverage: yes
[24]
  Expected coverage: no
[25]
  Expected coverage: no
[26]
  Expected coverage: no
[27]
  Expected coverage: yes
[28]
  Expected coverage: no
[29]
  Expected coverage: yes
[30]
  Expected coverage: yes
[31]
  Expected coverage: yes
[32]
  Expected coverage: yes
[33]
  Expected coverage: yes
[34]
  Expected coverage: yes
[35]
  Expected coverage: yes
[36]
  Expected coverage: yes
[37]
  Expected coverage: no
[38]; Yersinia pestis, Gram: neg
  Expected coverage: no
[39]
  Expected coverage: yes
[40]
  Expected coverage: yes
[41]
  Expected coverage: no
[42]
  Expected coverage: yes
[43]
  Expected coverage: yes
[44]; Chlamydia psittaci, Gram: n/a
  Expected coverage: no
[45]
  Expected coverage: no
[46]
  Expected coverage: yes
[47]
  Expected coverage: no
[48]
  Expected coverage: yes
[49]
  Expected coverage: yes
[50]
  Expected coverage: yes
[51]
  Expected coverage: yes
[52]
  Expected coverage: no
[53]
  Expected coverage: no
[54]
  Expected coverage: yes
[55]
  Expected coverage: no
[56]
  Expected coverage: yes
[57]
  Expected coverage: yes

## CN[C@H](CC(C)C)C(=O)N[C@H]1C(=O)N[C@@H](CC(N)=O)C(=O)N[C@H]2C(=O)N[C@H]3C(=O)N[C@H](C(=O)N[C@H](C(=O)O)c4cc(O)cc(O)c4-c4cc3ccc4O)[C@H](O)c3ccc(c(Cl)c3)Oc3cc2cc(c3O[C@@H]2O[C@H](CO)[C@@H](O)[C@H](O)[C@H]2O[C@H]2C[C@](C)(N)[C@H](O)[C@H](C)O2)Oc2ccc(cc2Cl)[C@H]1O [Vancomycin, vancomycin]
[58]
  Expected coverage: no
[1]
  Expected coverage: no
[2]
  Expected coverage: yes
[3]
  Expected coverage: no
[4]
  Expected coverage: no
[5]
  Expected coverage: no
[6]
  Expected coverage: no
[7]
  Expected coverage: no
[8]
  Expected coverage: no
[9]
  Expected coverage: no
[10]
  Expected coverage: no
[11]
  Expected coverage: no
[12]
  Expected coverage: yes
[13]
  Expected coverage: no
[14]
  Expected coverage: no
[59]
  Expected coverage: no
[15]
  Expected coverage: no
[16]
  Expected coverage: no
[17]
  Expected coverage: no
[18]
  Expected coverage: no
[19]
  Expected coverage: no
[20]
  Expected coverage: no
[21]
  Expected coverage: yes
[22]
  Expected coverage: no
[23]
  Expected coverage: yes
[24]
  Expected coverage: yes
[25]
  Expected coverage: no
[60]
  Expected coverage: no
[26]
  Expected coverage: no
[27]
  Expected coverage: no
[28]
  Expected coverage: yes
[29]
  Expected coverage: no
[30]
  Expected coverage: no
[31]
  Expected coverage: no
[32]
  Expected coverage: no
[33]
  Expected coverage: no
[34]
  Expected coverage: yes
[35]
  Expected coverage: no
[36]
  Expected coverage: no
[37]
  Expected coverage: yes
[38]
  Expected coverage: no
[39]
  Expected coverage: yes
[40]
  Expected coverage: no
[42]
  Expected coverage: no
[43]
  Expected coverage: no
[44]
  Expected coverage: no
[45]
  Expected coverage: yes
[46]
  Expected coverage: no
[47]
  Expected coverage: yes
[48]
  Expected coverage: no
[49]
  Expected coverage: yes
[50]
  Expected coverage: yes
[51]
  Expected coverage: no
[52]
  Expected coverage: no
[53]
  Expected coverage: no
[54]
  Expected coverage: no
[55]
  Expected coverage: no
[56]
  Expected coverage: no
[57]
  Expected coverage: no
